{"source": "patent US20230203126A1", "about": "“A COMPOSITION COMPRISING S-ARRESTIN PEPTIDES” (WORG PHARMACEUTICALS (HANGZHOU) CO., LTD., priority 2019, published 2023)", "data": [{"system": "SAg-specific hybridoma cells with fresh or fixed APC (VAVY) cells, MHCII", "assay": "Antigen processing independent presentation system (APIPS) assay", "assay_type": "cell-based, DR3tg mice", "conditions": "10 or 25 µg/ml peptide, IL-2 ELISA after 48 h", "description": "FIG. 10: Variants of peptide 15N3K are apitopes. The ability of variants of the 15N3K peptide to behave as apitopes (i.e. bind to an MHCII molecule and be presented to a T cell by an antigen-presenting cell without undergoing antigen processing) was tested using an APIPS assay. DR3tg mice were immunised with SAg and hybridoma’s were generated. 5*10^4 SAg-specific hybridoma cells were cultured with 5*10^4 fresh or fixed commercial APC (VAVY) cells. Cultures were stimulated with 10 or 25 µg/ml of peptide, as indicated in the graph. T cell activation was measured by IL-2 ELISA on supernatants collected after 48 h. The graph represents the mean of duplicate measurements ± SEM.\nApitopes (Antigen Processing-Independent epiTOPES) are capable of binding to an MHCII molecule and stimulating a response from SAg-specific T cells without further antigen processing. Variants of peptide 15N3K (SEQ ID NO: 3) were tested for their ability to bind to an MHCII molecule and be presented to a T cell hybridoma without further antigen processing in an in vitro antigen processing independent presentation system (APIPS) assay. In other words, peptides consisting of parts of peptide 15N3K and peptides with various degrees of sequence identity with peptide 15N3K were tested for their ability to behave as apitopes.\nAll but three of the peptides are apitopes.\nAntigen-specific hybridoma clones were tested for their reactivity to the peptides, presented by fixed or not fixed (fresh) cells (APCs). 5x10^4 cells were cultured with 10 µg/ml and 25 µg/ml peptide and 5x10^4 fixed or fresh APCs. To fix APCs, cells were incubated with 0.5% paraformaldehyde (Merck, Darmstadt, Germany) (pH7) for 5 min at room temperature (RT). The fixation reaction was stopped by adding 0.4 M glycine (Sigma-Aldrich) and washing the cells in RPMI-10% FCS. After 48 h, antigen-induced IL-2 production was measured by ELISA (R&D Systems, Abingdon, UK).", "values": [{"sequence": "KKKVIFKKISRDKSVTIKKK (H-KKKVIFKKISRDKSVTIKKK-NH2) [HIP-15B1-KKK, variant of peptide 15N3K]", "Apitope": "Yes"}, {"sequence": "KKKISRDKSVTIYLGKKK (H-KKKISRDKSVTIYLGKKK-NH2) [HIP-15G3-KKK, variant of peptide 15N3K]", "Apitope": "Yes"}, {"sequence": "VIFKKISRDKSVTIYL (H-VIFKKISRDKSVTIYL-NH2) [HIP-15BC, variant of peptide 15N3K]", "Apitope": "Yes"}, {"sequence": "KKISRDKSVTIYLG (H-KKISRDKSVTIYLG-NH2) [HIP-15E1, variant of peptide 15N3K]", "Apitope": "Yes"}, {"sequence": "KKKVIFKKISRDKSVKKK (H-KKKVIFKKISRDKSVKKK-NH2) [HIP-15B3-KKK, variant of peptide 15N3K]", "Apitope": "No"}, {"sequence": "KKKKKISRDKSVTIYLGKKK (H-KKKKKISRDKSVTIYLGKKK-NH2) [HIP-15E1-KKK, variant of peptide 15N3K]", "Apitope": "Yes"}, {"sequence": "MAASGKTSKSEPNHVIFKKISRDKSV TIYLGNRDYIDHVSQV (H-MAASGKTSKSEPNHVIFKKISRDKSVTIYLGNRDYIDHVSQV-NH2) [HIP-115, variant of peptide 15N3K]", "Apitope": "Yes"}, {"sequence": "KKKVIFKKISRDKSVTIYLKKK (H-KKKVIFKKISRDKSVTIYLKKK-NH2) [HIP-15BC-KKK, variant of peptide 15N3K]", "Apitope": "Yes"}, {"sequence": "VIFKKISRDKSVTI (H-VIFKKISRDKSVTI-NH2) [HIP-15B1, variant of peptide 15N3K]", "Apitope": "Yes"}, {"sequence": "IFKKISRDKSVTIYLG (H-IFKKISRDKSVTIYLG-NH2) [HIP-15CD, variant of peptide 15N3K]", "Apitope": "Yes"}, {"sequence": "VIFKKISRDKSV (H-VIFKKISRDKSV-NH2) [HIP-15B3, variant of peptide 15N3K]", "Apitope": "No"}, {"sequence": "ISRDKSVTIYLG (H-ISRDKSVTIYLG-NH2) [HIP-15G3, variant of peptide 15N3K]", "Apitope": "No"}, {"sequence": "KKKIFKKISRDKSVTIYLGKKK (H-KKKIFKKISRDKSVTIYLGKKK-NH2) [HIP-15CD-KKK, variant of peptide 15N3K]", "Apitope": "Yes"}]}]}
